Several values for one entry are separate records, joined by “and”; a condition that tells them apart may be missing. Equal values may be shown once. Toxic doses and inconclusive results are not listed. How the source made its calls: active means survival T/C of 150% or more; inactive means T/C below 125% in these data.
Tested on: CD2F1 mice, L1210 leukemia ip, survival T/C
Test: NCI In Vivo Anticancer Drug Screen. Data for tumor model L1210 Leukemia (intraperitoneal) in CD2F1 (CDF1) mice
Conditions: higher = longer survival
Method in brief: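 In this screen, transplantable tumors were grown in mice given either the compound or its vehicle. Results were expressed as the treated measurement relative to the control measurement.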

[1] = endpoint: mean survival time, dose: 100.0 mg/kg/injection, schedule: Q04DX003 (ip), vehicle: saline with Tween-80
[2] = endpoint: mean survival time, dose: 200.0 mg/kg/injection, schedule: Q04DX003 (ip), vehicle: saline with Tween-80
[3] = endpoint: mean survival time, dose: 400.0 mg/kg/injection, schedule: Q04DX003 (ip), vehicle: saline with Tween-80
[4] = endpoint: mean survival time, dose: 100.0 mg/kg/injection, schedule: Q01DX009 (ip), vehicle: saline with Tween-80
[5] = endpoint: mean survival time, dose: 200.0 mg/kg/injection, schedule: Q01DX009 (ip), vehicle: saline with Tween-80
[6] = endpoint: mean survival time, dose: 400.0 mg/kg/injection, schedule: Q01DX009 (ip), vehicle: saline with Tween-80

Measured: T/C

c1ccc(-c2nc3ccccc3s2)nc1
inactive: [1] 96 % of control | [2] 103 % of control | [3] 96 % of control

Clc1ccc2c(c1)[N-]c1ccccc1S2.Clc1ccc2c(c1)[N-]c1ccccc1S2.[Cl][Pt+2][Cl]
inactive: endpoint: mean survival time, dose: 3.8 mg/kg/injection, schedule: Q04DX003 (ip), vehicle: saline with Tween-80 102 % of control | endpoint: mean survival time, dose: 7.5 mg/kg/injection, schedule: Q04DX003 (ip), vehicle: saline with Tween-80 102 % of control | endpoint: mean survival time, dose: 15.0 mg/kg/injection, schedule: Q04DX003 (ip), vehicle: saline with Tween-80 90 % of control | endpoint: mean survival time, dose: 30.0 mg/kg/injection, schedule: Q04DX003 (ip), vehicle: saline with Tween-80 94 % of control | endpoint: mean survival time, dose: 60.0 mg/kg/injection, schedule: Q04DX003 (ip), vehicle: saline with Tween-80 90 % of control

Cc1ccc(O)c2ncccc12
inactive: [4] 114 % of control | [5] 97 % of control | [6] 103 % of control

CC1CCCCC1O (stereo not given)
inactive: endpoint: mean survival time, dose: 50.0 mg/kg/injection, schedule: Q01DX001 (ip), vehicle: carboxymethylcellulose (CMC) 97 % of control | endpoint: mean survival time, dose: 50.0 mg/kg/injection, schedule: Q01DX009 (ip), vehicle: saline with Tween-80 103 % of control | endpoint: mean survival time, dose: 100.0 mg/kg/injection, schedule: Q01DX001 (ip), vehicle: carboxymethylcellulose (CMC) 108 % of control | [4] 103 % of control | endpoint: mean survival time, dose: 100.0 mg/kg/injection, schedule: Q04DX003 (ip), vehicle: saline 103 % of control | endpoint: mean survival time, dose: 200.0 mg/kg/injection, schedule: Q01DX001 (ip), vehicle: carboxymethylcellulose (CMC) 92 % of control | [5] 95 % of control | endpoint: mean survival time, dose: 200.0 mg/kg/injection, schedule: Q04DX003 (ip), vehicle: saline 103 % of control | endpoint: mean survival time, dose: 400.0 mg/kg/injection, schedule: Q01DX001 (ip), vehicle: carboxymethylcellulose (CMC) 100 % of control | endpoint: mean survival time, dose: 400.0 mg/kg/injection, schedule: Q04DX003 (ip), vehicle: saline 95 % of control

O=C(c1ccc(Cl)cc1)C1CC(Br)C(Br)CC1C(=O)c1ccc(Cl)cc1 (stereo not given)
inactive: [4] 96 % of control | [1] 101 % of control | [5] 98 % of control | [2] 98 % of control | [6] 100 % of control | [3] 98 % of control

COC(=O)c1cc([N+](=O)[O-])cc([N+](=O)[O-])c1Sc1ncnc2nc[nH]c12
inactive: endpoint: mean survival time, dose: 0.63 mg/kg/injection, schedule: Q01DX005 (ip), vehicle: other 100 % of control | endpoint: mean survival time, dose: 1.25 mg/kg/injection, schedule: Q01DX005 (ip), vehicle: other 100 % of control | endpoint: mean survival time, dose: 2.5 mg/kg/injection, schedule: Q01DX005 (ip), vehicle: other 107 % of control | endpoint: mean survival time, dose: 5.0 mg/kg/injection, schedule: Q01DX005 (ip), vehicle: other 112 % of control | endpoint: mean survival time, dose: 10.0 mg/kg/injection, schedule: Q01DX005 (ip), vehicle: other 112 % of control | endpoint: mean survival time, dose: 40.0 mg/kg/injection, schedule: Q01DX005 (ip), vehicle: other 95 % of control

CC(C)(C)NC(=O)CCC1C2C=CC(C2)C1C#N (stereo not given)
inactive: [1] 93 % of control | [2] 91 % of control | [3] 98 % of control

CCCCCCCCCN=C(N)CSSCC(N)=NCCCCCCCCC
inactive: endpoint: mean survival time, dose: 12.5 mg/kg/injection, schedule: Q01DX001 (ip), vehicle: Klucel (hydroxypropylcellulose) (HPC) 94 % of control | endpoint: mean survival time, dose: 25.0 mg/kg/injection, schedule: Q01DX001 (ip), vehicle: Klucel (hydroxypropylcellulose) (HPC) 101 % of control

O=c1c(Cl)c(Cl)cnn1-c1ccc([N+](=O)[O-])cc1[N+](=O)[O-]
inactive: endpoint: mean survival time, dose: 100.0 mg/kg/injection, schedule: Q01DX001 (ip), vehicle: other 88 % of control | endpoint: mean survival time, dose: 200.0 mg/kg/injection, schedule: Q01DX001 (ip), vehicle: other 88 % of control | endpoint: mean survival time, dose: 400.0 mg/kg/injection, schedule: Q01DX001 (ip), vehicle: other 94 % of control

S=c1cc[nH]c2ccccc12
inactive: endpoint: mean survival time, dose: 12.5 mg/kg/injection, schedule: Q01DX009 (ip), vehicle: other 104 % of control | endpoint: mean survival time, dose: 25.0 mg/kg/injection, schedule: Q01DX009 (ip), vehicle: other 102 % of control | endpoint: mean survival time, dose: 50.0 mg/kg/injection, schedule: Q01DX009 (ip), vehicle: other 104 % of control

O.O.O=C(O)C(O)C(O)C(OC1OC(CO)C(O)C(O)C1O)C(O)CO.O=C(O)C(O)C(O)C(OC1OC(CO)C(O)C(O)C1O)C(O)CO.[NH-]C1CCCCC1[NH-].[Pt+2] (stereo not given)
inactive: endpoint: median survival time, dose: 3.12 mg/kg/injection, schedule: Q04DX003 (ip), vehicle: saline 100 % of control | endpoint: median survival time, dose: 6.25 mg/kg/injection, schedule: Q04DX003 (ip), vehicle: saline 100 % of control | endpoint: median survival time, dose: 12.5 mg/kg/injection, schedule: Q04DX003 (ip), vehicle: saline 102 % of control | endpoint: median survival time, dose: 25.0 mg/kg/injection, schedule: Q04DX003 (ip), vehicle: saline 101 % of control | endpoint: median survival time, dose: 50.0 mg/kg/injection, schedule: Q04DX003 (ip), vehicle: saline 98 % of control | endpoint: median survival time, dose: 100.0 mg/kg/injection, schedule: Q04DX003 (ip), vehicle: saline 101 % of control | endpoint: median survival time, dose: 200.0 mg/kg/injection, schedule: Q04DX003 (ip), vehicle: saline 112 % of control

N=C(N)c1ccc(N=Nc2c(O)ccc3cc(O)ccc23)cc1
inactive: endpoint: median survival time, dose: 12.5 mg/kg/injection, schedule: Q01DX005 (ip), vehicle: Klucel (hydroxypropylcellulose) (HPC) 104 % of control and 107 % of control | endpoint: median survival time, dose: 25.0 mg/kg/injection, schedule: Q01DX005 (ip), vehicle: Klucel (hydroxypropylcellulose) (HPC) 100 % of control and 102 % of control | endpoint: median survival time, dose: 50.0 mg/kg/injection, schedule: Q01DX005 (ip), vehicle: Klucel (hydroxypropylcellulose) (HPC) 90 % of control and 103 % of control | endpoint: median survival time, dose: 100.0 mg/kg/injection, schedule: Q01DX005 (ip), vehicle: Klucel (hydroxypropylcellulose) (HPC) 95 % of control and 107 % of control | endpoint: median survival time, dose: 200.0 mg/kg/injection, schedule: Q01DX005 (ip), vehicle: Klucel (hydroxypropylcellulose) (HPC) 104 % of control

CCCOCCN=C(N)C(N)=NCCOCCC
inactive: endpoint: mean survival time, dose: 12.5 mg/kg/injection, schedule: Q04DX002 (ip), vehicle: saline with Tween-80 97 % of control | endpoint: mean survival time, dose: 25.0 mg/kg/injection, schedule: Q04DX002 (ip), vehicle: saline with Tween-80 89 % of control | endpoint: mean survival time, dose: 50.0 mg/kg/injection, schedule: Q04DX002 (ip), vehicle: saline with Tween-80 97 % of control

CCCC1CC[N-]CC1.CCCC1CC[N-]CC1.[Br][Pt+2]([Br])([Br])[Br]
inactive: endpoint: mean survival time, dose: 6.25 mg/kg/injection, schedule: Q01DX009 (ip), vehicle: water 94 % of control | endpoint: mean survival time, dose: 12.5 mg/kg/injection, schedule: Q01DX009 (ip), vehicle: water 96 % of control | endpoint: mean survival time, dose: 25.0 mg/kg/injection, schedule: Q01DX009 (ip), vehicle: water 97 % of control | endpoint: mean survival time, dose: 50.0 mg/kg/injection, schedule: Q01DX009 (ip), vehicle: water 91 % of control | endpoint: mean survival time, dose: 100.0 mg/kg/injection, schedule: Q04DX003 (ip), vehicle: water 90 % of control

Nc1ccc2nc3ccc(N)cc3[n+](-c3ccccc3)c2c1
inactive: endpoint: mean survival time, dose: 6.0 mg/kg/injection, schedule: Q01DX009 (ip), vehicle: saline 105 % of control | endpoint: mean survival time, dose: 8.0 mg/kg/injection, schedule: Q01DX009 (ip), vehicle: saline 105 % of control | endpoint: mean survival time, dose: 12.0 mg/kg/injection, schedule: Q01DX009 (ip), vehicle: saline 110 % of control

C1=CC2OC1c1cc3ccccc3cc12
inactive: endpoint: mean survival time, dose: 100.0 mg/kg/injection, schedule: Q04DX003 (ip), vehicle: other 121 % of control | endpoint: mean survival time, dose: 200.0 mg/kg/injection, schedule: Q04DX003 (ip), vehicle: other 105 % of control

C=CC=O
inactive: endpoint: mean survival time, dose: 1.87 mg/kg/injection, schedule: Q01DX009 (ip), vehicle: saline 92 % of control

Cc1ccc(C)c2c1CC/C(=C\c1ccccc1[N+](=O)[O-])C2=O
inactive: [1] 96 % of control | [2] 97 % of control | [3] 91 % of control

CC(=O)Oc1cccc(C#N)c1
inactive: [4] 100 % of control | [5] 100 % of control | [6] 96 % of control

On1ccnc2nncc1-2
inactive: endpoint: mean survival time, dose: 11.3 mg/kg/injection, schedule: Q01DX005 (ip), vehicle: other 104 % of control | endpoint: mean survival time, dose: 22.5 mg/kg/injection, schedule: Q01DX005 (ip), vehicle: other 104 % of control | endpoint: mean survival time, dose: 45.0 mg/kg/injection, schedule: Q01DX005 (ip), vehicle: other 101 % of control | endpoint: mean survival time, dose: 90.0 mg/kg/injection, schedule: Q01DX005 (ip), vehicle: other 97 % of control | endpoint: mean survival time, dose: 180.0 mg/kg/injection, schedule: Q01DX005 (ip), vehicle: other 93 % of control | endpoint: mean survival time, dose: 200.0 mg/kg/injection, schedule: Q01DX005 (ip), vehicle: other 102 % of control | endpoint: mean survival time, dose: 400.0 mg/kg/injection, schedule: Q01DX005 (ip), vehicle: other 106 % of control

CC(C)(C)C(NO)C(O)N1CCCCC1 (stereo not given)
inactive: endpoint: mean survival time, dose: 100.0 mg/kg/injection, schedule: Q01DX001 (ip), vehicle: saline 97 % of control | endpoint: mean survival time, dose: 200.0 mg/kg/injection, schedule: Q01DX001 (ip), vehicle: saline 95 % of control

Reference: PubChem BioAssay AID256 (DTP/NCI, 2004)
